This is an account of results in US20050267303A1, “Cyclic indole and heteroindole derivatives and methods for making and using as pharmaceuticals” (Zentaris AG, priority 2001, published 2005).

The melting point is the temperature of the solid-liquid transition. As a reminder, the inhibition is the percentage by which the read-out fell short of the control.

Each structure is given as a SMILES string.

Series [1] deals with HeLa/KB (CCL17) cells. Briefly: XTT cytotoxicity (proliferation) test, HeLa/KB. In kind it is cell-based, human. The following applies: for anti-proliferative effect (summary in words of Table 1): 3.16 μg/mL, over cell lines HeLa/KB, SK-OV-3, MCF-7, L1210; for percentage inhibition KB/HeLa: concentration 3.16 μg/mL, 45 h incubation. The source says: (§1) The substances D-70260, D-70744, D-80815, D-80816 and D-80819 (Examples C2.3, D4, F2, F3 and F4) were investigated in a proliferation test (Scudiero, et al., Cancer Res., 48: 4827-33, 1987) using established tumor cell lines and their anti-proliferative activity was investigated. The test used determines the mitochondrial dehydrogenase activity and enables the cell vitality and, indirectly, the cell count to be determined. The cell lines used are the human cell lines HeLa/KB (CCL17), SK-OV-3 (HTB77), MCF-7 (HTB22) and the murine leukemia cell line L1210 (CCL219). These are very well characterized and established cell lines, which were obtained from ATCC and cultured.
(§2) XTT Test for Cellular Dehydrogenase Activity
(§3) The adherent, growing, tumor cell lines HeLa/KB, SK-OV-3, MCF-7, L1210 and RKO were cultured under standard conditions in an incubator with gas inlet at 37° C., 5% carbon dioxide and 95% relative humidity. On day 1 of the experiment, the cells were detached with trypsin/EDTA and palletized by centrifuging. Subsequently, the cell pellet is re-suspended in the respective culture medium in the appropriate cell count and transferred into a 96-well microtiter plate. The plates are then cultured overnight in the incubator with gas inlet. The test substances are used as a 10 mM stock solution in DMSO and diluted on the second day of the experiment with culture medium to the appropriate concentrations. The substances in the culture medium are then added to the cells and incubated for 45 hours in the incubator with gas inlet. The cells, which were not treated with test substances, were used as controls. For the XTT-Assay, 1 mg/mL of XTT (sodium 3′-[1-(phenylaminocarbonyl)-3,4-tetrazolium]-bis(4-methoxy-6-nitro) benzenesulfonic acid) in RPMI-1640 medium was dissolved without phenol red. Additionally, a 0.383 mg/mL PMS (N-methyl dibenzopyrazine methyl sulfate) solution in phosphate buffer cell solution (PBS) was prepared. On the fourth day of the experiment, 75 μL/well of XTT-PMS mixture was pipetted onto the cell plates, which had meanwhile been incubated for 45 hours with the test substances. For this purposes, the XTT solution is mixed with the PMS solution in a ratio of 50:1 (v: v) shortly before use. Subsequently the cell plates are incubated in the incubator with gas inlet for a further three hours and the optical density (OD490nm) is determined in a photometer.
(§4) The percentage inhibition relative to the control is calculated by means of the OD490nm, which has been determined, and the activity is plotted against the log of a concentration. The IC50 is calculated from the concentration-activity curve by means of a regression analysis using the Graphpad program.
For orientation: Tetrazolium assays rely on reduction of a dye to a coloured formazan, in cell work by metabolically active cells.

Series [2] concerns SK-OV-3 (HTB77) cells. Briefly: XTT cytotoxicity (proliferation) test, SK-OV-3. In kind it is cell-based. The following applies: Homo sapiens, concentration 3.16 μg/mL, 45 h incubation, read-out: percentage inhibition SK-OV-3.
Source text: as §1, §2, §3, §4

For series [3], the system named is MCF-7 (HTB22) cells. Briefly: XTT cytotoxicity (proliferation) test, MCF-7. In kind it is cell-based. Particulars: Homo sapiens, MCF7, concentration 3.16 μg/mL, 45 h incubation, read-out: percentage inhibition MCF-7.
Source text: as §1, §2, §3, §4

Series [4] deals with murine leukemia cell line L1210 (CCL219). Briefly: XTT cytotoxicity (proliferation) test, L1210. Particulars: Mus musculus, concentration 3.16 μg/mL, 45 h incubation, read-out: percentage inhibition L1210. In kind it is cell-based.
Source text: as §1, §2, §3, §4

Series [5] concerns HeLa/KB cells in hollow fibers. Briefly: Hollow fiber model in vivo (nude mouse), HeLa/KB. Further details: species or system human. As to the method:
(§5) In order to determine the availability and effectiveness in the animal model (nude mouse), the cell lines HeLa/KB, MCF-7 and L1210 were cultured in hollow fibers, which are implanted i.p. or s.c. (Hollingshead et al., Life Sciences 57, 131-41, 1995). The test substance D-80816 is administered four times […]. in a dose of 100 mg/kg. At the end of the therapy on day 5, the fibers are explanted and the cell vitality of the tumor cells obtained is determined by means of the XTT assay. For D-80816, there is a maximum inhibition of 100% for all the cell lines and implantation cites and a general toxicity of LD50>1000 mg/kg (i.p.).
(§6) Determination of the Anti-Proliferative Activity in the Hollow Fiber Model in vivo
(§7) The tumor cells lines HeLa/KB, MCF-7 and L1210 are added to polyvinylidene fluoride hollow fibers (5×10^6 cells/mL) and transplanted into the physiological compartments of the nude mouse (intraperitoneally, i.p., or subcutaneously, s.c.). A total of six hollow fibers (3 i.p. and 3 s.c.) with the respective tumor cell lines is transplanted into each experimental animal. One group of six animals is treated with the test substance (i.p. once daily for a total of 4 days) (ok?). The animals, which have been treated only with the solvent tylose, acted as control. The hollow fibers are explanted one day after the last application of substance. The proportion of metabolism-active, vital cells is determined for each hollow fiber by means of the XTT assay (see above). From this, the anti-tumor activity of the test substance is determined as the percent inhibition relative to the control.

The test system of series [6] is L1210 cells in hollow fibers. Briefly: Hollow fiber model in vivo (nude mouse), L1210. Further details: species or system murine. The following applies: dose 4 × 100 mg/kg i.p., explanted day 5. As to the method: as §5, §6
as §7, with “One group of six animals is treated with the test substance (i.p. once daily for a total of 4 days) (ok?). The animals, which have been treated only with the solvent tylose, acted as control. The hollow fibers are explanted one day after the last application of substance.” left out

For series [7], the system named is MCF-7 cells in hollow fibers. Briefly: Hollow fiber model in vivo (nude mouse), MCF-7. Particulars: dose 4 × 100 mg/kg i.p., explanted day 5. Further details: species or system human. On the procedure:
as §5, §6
as §7, with “One group of six animals is treated with the test substance (i.p. once daily for a total of 4 days) (ok?). The animals, which have been treated only with the solvent tylose, acted as control. The hollow fibers are explanted one day after the last application of substance.” left out

Series [8] can be described thus: General toxicity LD50 (i.p.). Particulars: nude, mouse, in vivo, ip, read-out: LD 50 (general toxicity). On the procedure: as §5
The subject of series [9] is RKOp27 cells (RKO colon carcinoma line with inducible p27Kip1). Briefly: Cell cycle analysis in the RKOp27 model (XTT readout). In kind it is cell-based, human. The source says: The RKO is a human, colon carcinoma line, in which the cell cycle inhibitor p27^KiPI is induced to express by means of the Ecdyson expression system and leads to a cell cycle arrest specifically in GI (FIG. 2). A substance with non-specific activity inhibits the proliferation independently of whether the RKO cell in GI is arrested or not. On the other hand, cell cycle-specific substances, such as tubulin inhibitors, are cytotoxic only when the cells are not arrested and the cells pass through the cycle. […] Therefore, a defined, molecular, activity mechanism of D-80816 and its derivatives must be assumed. [drawing] [drawing]
Cell Cycle Analysis by Means of the RKOp27 Model
The assay is carried out in 96-well plates. The growth of the cells is arrested completely by the expression of p27^kiP1, which can be induced. […] By comparing the effectiveness of induced and not-induced cells, conclusions can be drawn concerning the mechanism of action (cell cycle specificity) of the therapeutic agents. Cells, which have […], were disseminated in an approximately 4 times higher cell count than uninduced cells, since there no longer is a division during the assay (2×10^4 cells/well induced, about 0.6×10^4 cells/well not induced). The controls are untreated cells (+/−induction). The induction is carried out with 3 μM of muristerone A. The cells are exposed on the first day (+/−muristerone A) and incubated for 24 hours at 37° C. The test substance is added on the second day (control DMSO) and the incubation is continued for a further 48 hours at 37° C., before the standard XTT assay is carried out (see above).

For `COc1ccc2c(c1)cc1c(C)noc(=O)n12` [Example C2.1, 3-methyl-1,2,5-oxadiazino[4,5-α](5-methoxyindole)-6-one], the melting point lay within 217 to 220 °C.

The compound `COc1cccc(C2=C(c3ccccc3)C(=O)n3c2cc2cc(OC)ccc23)c1` [Example F2, 6-methoxy-1-(3-methoxyphenyl)-2-phenyl-3a-aza-cyclopenta[a]indene-3-one] registered a melting point of 111 to 113 °C. In series [1], the “anti-proliferative effect (summary in words of Table 1)” value was “do not show a significant effect” and the “percentage inhibition KB/HeLa” value is on record as 1.7%. Further, in series [2], the inhibition at 3.16 µg/mL amounted to 0%. Also, the inhibition at 3.16 µg/mL in series [3] amounted to 8.1%. Moreover, the inhibition at 3.16 µg/mL in [4] is 0%.

Regarding `COc1cccc(C2=C(c3cccc(OC)c3)c3cc4cc(OC)ccc4n3C2=O)c1` [Example F3, 6-methoxy-1,2-bis-(3-methoxyphenyl)-3a-aza-cyclopenta[a]indene-3-one], in series [1], the “anti-proliferative effect (summary in words of Table 1)” value is on record as “very potent anti-proliferative effect” and the “percentage inhibition KB/HeLa” value is on record as 91.7%. Also, in [2], the inhibition at 3.16 µg/mL was determined as 66.1%. In addition, in series [3], the inhibition at 3.16 µg/mL is 18.2%. Also, the inhibition at 3.16 µg/mL in series [4] amounted to 94.7%. Moreover, the “maximum inhibition in hollow fiber model” value in series [5] (all the cell lines (HeLa/KB, MCF-7, L1210) and implantation sites (i.p., s.c.), 4 × 100 mg/kg) was 100%. Moreover, the “Proliferation Inhibition in hollow Fibers, KB (i.p.)” value in [5] (fibers implanted i.p., dose 4 × 100 mg/kg i.p., explanted day 5) is 100%. For the same compound, the “Proliferation Inhibition in hollow Fibers, KB (s.c.)” value in series [5] (fibers implanted s.c., dose 4 × 100 mg/kg i.p., explanted day 5) is 100%. Besides, the “Proliferation Inhibition in hollow Fibers, L1210 (i.p.)” value in [6] (fibers implanted i.p.) stood at 100%. The “Proliferation Inhibition in hollow Fibers, L1210 (s.c.)” value in series [6] (fibers implanted s.c.) is recorded as 100%. In series [7] (fibers implanted i.p.), the “Proliferation Inhibition in hollow Fibers, MCF7 (i.p.)” value is listed as 100%. Moreover, the “Proliferation Inhibition in hollow Fibers, MCF7 (s.c.)” value in series [7] (fibers implanted s.c.) amounted to 100%. In addition, in series [8], the LD50 was over 1000 mg/kg and the LD50 at 5 days was over 100 mg/kg. Further, the “anti-proliferative effect in cells arrested in G1” value in series [9] (RKOp27 cells induced with 3 μM muristerone A (p27 expression, G1 arrest), 48 h, XTT) is listed as “cannot be measured”. The “anti-proliferative effect in cells not induced” value in series [9] (RKOp27 cells not induced, 48 h, XTT) is on record as “concentration-dependent anti-proliferative effect”. Further, the cell cycle-specific activity result in series [9] (comparison of induced (G1-arrested) and not induced RKOp27 cells) is on record as “cell cycle-specific activity”.

Compound `CCc1noc(=O)n2c1cc1cc(OC)ccc12` [Example C2.2, 3-ethyl-1,2,5-oxadiazino[4,5-α](5-methoxyindole)-6-one] registered a melting point of 208 to 212 °C.

With `COc1ccc2c(c1)cc1n2C(=O)C(c2ccccc2)=C1c1ccc(Cl)cc1` [Example F1, 1-(4-chlorophenyl)-6-methoxy-2-phenyl-3a-aza-cyclopenta[a]indene-3-one], the melting point was 152 to 155 °C.

With `COc1ccc(C2=C(c3ccc(F)cc3)C(=O)n3c2cc2cc(OC)ccc23)cc1` [Example F4, 2-(4-florophenyl)-6-methoxy-1-(4-methoxyphenyl)-3a-aza-cyclopenta[a]indene-3-one], the melting point lay in the range of 157 to 160 °C. Further, in series [1], the “anti-proliferative effect (summary in words of Table 1)” value is “do not show a significant effect” and the “percentage inhibition KB/HeLa” value came to 0%. Besides, in series [2], the inhibition at 3.16 µg/mL came out at 6.6%. In [3], the inhibition at 3.16 µg/mL amounted to 0%. Further, the inhibition at 3.16 µg/mL in series [4] came out at 21.8%.

Compound `COc1ccc2c(c1)cc1c(-c3ccc(Cl)cc3)noc(=O)n12` [Example D4, 3-(4-chlorophenyl)-1,2,5-oxadiazino[4,5α](5-methoxyindole)-6-one] returned a melting point of 227 to 230 °C. Besides, in [1], the “anti-proliferative effect (summary in words of Table 1)” value is “very potent anti-proliferative effect” and the “percentage inhibition KB/HeLa” value is recorded as 74.6%. In addition, the inhibition at 3.16 µg/mL in [2] is 55.2%. The inhibition at 3.16 µg/mL in [3] stood at 1.9%. For the same compound, the inhibition at 3.16 µg/mL in series [4] is 77.1%.

`COc1ccccc1-c1noc(=O)n2c1cc1ccccc12` [Example D1, 3-(2-methoxyphenyl)-1,2,5-oxadiazino[4,5α]indole-6-one] showed a melting point of 160 to 162 °C.

The compound `COc1ccc2c(c1)cc1c(-c3ccc(Cl)cc3)nn(-c3ccccc3)c(=O)n12` registered a melting point of 155 to 158 °C.

In the case of `COc1ccc2c(c1)cc1c(-c3ccccc3)noc(=O)n12` [Example C2.3, 3-phenyl-1,2,5-oxadiazino[4,5α](5-methoxyindole)-6-one], the melting point is 198 to 200 °C. Also, in series [1], the “anti-proliferative effect (summary in words of Table 1)” value was “very potent anti-proliferative effect” and the “percentage inhibition KB/HeLa” value stood at 90.7%. For the same compound, in series [2], the inhibition at 3.16 µg/mL came to 68.9%. In series [3], the inhibition at 3.16 µg/mL is 4.1%. Further, the inhibition at 3.16 µg/mL in series [4] came out at 91.3%.

`COc1cccc(-c2noc(=O)n3c2cc2ccccc23)c1` [Example D2, 3-(3-methoxyphenyl)-1,2,5-oxadiazino[4,5α]indole-6-one] yielded a melting point of 129 to 130 °C.

`COc1cccc(-c2noc(=O)n3c2cc2cc(OC)ccc23)c1` [Example D3, 3-(3-methoxyphenyl)-1,2,5-oxadiazino[4,5α](5-methoxyindole)-6-one] showed a melting point of 171 to 173 °C.
